The results in this text go back to patent US20180312534A1, “FLUORESCENT ANTICANCER PLATINUM DRUGS” (INVICTUS ONCOLOGY PVT. LTD., priority 2015, published 2018).

In this test the test system is A549. The experiment in a line: Cellular uptake of fluorescent compounds (fluorescence microscopy). The format is cell-based. The conditions noted are these: A549, post 5-hours incubation. How it is done: The intracellular localization of molecules was visualized by fluorescence microscopy. Cells were seeded on cover slips to a confluency of 40% and grown for 24 hours in a humidified chamber. Cells were treated with fluorescent compounds and incubated for 2, 5 and 24 hours. Following incubation, cells were washed with PBS, fixed in 4% paraformaldehyde and observed under epifluorescence microscope. Images were recorded in phase contrast and fluorescent channels. Cells treated with vehicle and/or ligand were considered as control and microscopically evaluated.

SMILES strings stand for the structures.

With `NCC(N)C(=O)OCCNc1ccc2cccc3c2c1C(=O)C=C3` (stereo not shown) [Im-02], the “intracellular localization of fluorescence” value was “punctate dots in the cytoplasm or along cell margins”.
